Earlier results as cited in US9913917B2, “Biocompatible fluorescent metal oxide nanoparticles” (VisEn Medical, Inc., priority 2005, dated 2018).

Details: free fluorochrome

## Cy5.5
  Absorbance max: 675 nm
  εmax: 250,000 M^−1cm^−1
